Experiments:
Assay type in all cases: in vivo, white mice of Swiss strain
[1] = tested on: doxorubicin-induced skin ulcers; assay: doxorubicin-induced skin ulcers in white mice: ulcer area and macroscopic state
Text: (§1) Research indicators during burn treatment including: (A) macromorphological index, (B) quantification of hydroxyproline concentration in damaged tissue, and (C) micromorphic index; wherein: • (A) macromorphological index: • Injury status at the burn: swelling, heat, redness, edema observed by eye and recorded by digital camera; • Measure the burn area at 7, 14, and 21 days after causing the burn.
Evaluation of the scar healing effect of the composition 100 and composition 200 in experiments. The model was based on previous studies of doxorubicin-induced skin ulcers in white mice of Swiss strain, both breeds, healthy, weight 30-35 g. White mice of both breeds of both breeds were randomly divided into 5 lots, each batch of 10 animals as follows: • Lot 1: Intradermal injection of physiological saline, no applying DMSO/composition 100/composition 200; • Lot 2: Intradermal injection of doxorubicin 1 mg/0.5 ml, to heal the ulcer naturally; • Lot 3: Intradermal injection of doxorubicin 1 mg/0.5 ml, for ulcer progression for 7 days. Then, drop 0.1 ml of DMSO on the ulcerated area, 2 times a day, use within 21 days; • Lot 4: Intradermal injection of doxorubicin 1 mg/0.5 ml, for ulcer progression for 7 days. Then, apply the composition 100 with dose of 0.1 ml/ulcer/time, 2 times/day, used for 21 days; and • Lot 5: Intradermal injection of doxorubicin 1 mg/0.5 ml, for ulcer progression for 7 days. Then, apply the composition 200 with dose of 0.1 ml/ulcer/time, with a frequency of twice daily, and used for 21 days.
(§2) Research indicators during scar healing including: (A) macromorphological index, (B) quantification of hydroxyproline concentration in damaged tissue, and (C) micromorphic index; all was samed as the burn treatment research experimental.

[2] = tested on: doxorubicin-induced skin ulcers; assay: hydroxyproline concentration in skin of mice with doxorubicin-induced ulcers; details: doxorubicin-induced skin ulcer model; at the end of the study (21 days of application)
Text: as §1
(§3) Evaluation of the scar healing effect of the composition 100 and composition 200 in experiments. The model was based on previous studies of doxorubicin-induced skin ulcers in white mice of Swiss strain, both breeds, healthy, weight 30-35 g. White mice of both breeds of both breeds were randomly divided into 5 lots, each batch of 10 animals as follows: • Lot 1: Intradermal injection of physiological saline, no applying DMSO/composition 100/composition 200; • Lot 2: Intradermal injection of doxorubicin 1 mg/0.5 ml, to heal the ulcer naturally; • Lot 3: Intradermal injection of doxorubicin 1 mg/0.5 ml, for ulcer progression for 7 days. […]
as §2

[3] = tested on: doxorubicin-induced skin ulcers; assay: micromorphic index of the skin at the ulcer; details: mice
Text: as §1, §3, §2

C[S+](C)[O-] [DMSO, dimethyl sulfoxide]
Area of skin ulcers After 7 days (x ± SD) ([1]; 0.1 ml on ulcer 2 times a day, after 7 days): 50.13 ± 12.55 mm^2
Area of skin ulcers After 14 days Median (quartile) ([1]; 0.1 ml on ulcer 2 times a day, after 14 days, median): 7.13 mm^2
Area of skin ulcers After 21 days Median (quartile) ([1]; 0.1 ml on ulcer 2 times a day, after 21 days, median): 0 mm^2
macroscopic state of the ulcerated skin area ([1]; at the end of the study): significantly reduced and almost completely healed skin ulcers
Area of skin ulcers Before applied (x ± SD) ([1]; before applied (baseline)): 75.71 ± 14.02 mm^2
Hydroxyproline concentrations in mouse skin (x ± SD) [2]: 15.04 ± 2.35 mg/g skin
micromorphic images of the skin at the ulcer [3]: the skin has regenerated to form the epidermis, no formation of skin-dependent glands, less blood vessels
